Like-named read-outs stand apart in the source and are kept apart here.
Target: T1, delta opioid receptor (Mus musculus, UniProt P32300)
T1 construct: NG108-15 cell membranes were purchased from Applied Cell Sciences (Rockville, Md.); host or cells: NG108-15 cell membranes
Test: [35S]GTPγS binding assay in NG108-15 cell membranes (delta opioid functional assay), 200 nM screen
Assay type: biochemical
Conditions: NG108-15 cell membranes; for GTPγS δ-RelEfficacy @200 nM: 200 nM test compound, relative to calculated max of SNC80 dose response curve; for GTPγS δ-RelEfficacy @200 nM / EC50: averages if tested more than once; for GTPγS δ-opioid receptor Rel Efficacy: relative efficacy from dose response

[1] = read-out: GTPγS δ-opioid receptor EC50
[2] = GTPγS δ-opioid receptor EC50 (μM)

T1 sequence (P32300 whole entry): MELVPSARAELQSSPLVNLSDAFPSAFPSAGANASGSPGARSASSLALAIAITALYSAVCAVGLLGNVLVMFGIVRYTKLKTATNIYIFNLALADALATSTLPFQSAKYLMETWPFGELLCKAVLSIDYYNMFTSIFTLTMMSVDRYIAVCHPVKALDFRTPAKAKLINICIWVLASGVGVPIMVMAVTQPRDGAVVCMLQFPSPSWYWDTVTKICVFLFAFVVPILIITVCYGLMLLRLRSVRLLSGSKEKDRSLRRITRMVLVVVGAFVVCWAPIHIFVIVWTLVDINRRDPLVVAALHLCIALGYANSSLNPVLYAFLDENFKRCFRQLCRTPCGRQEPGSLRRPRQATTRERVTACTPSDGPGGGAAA

Row | Compound | GTPγS δ-RelEfficacy @200 nM | EC50 [1] [µM] | GTPγS δ-opioid receptor Rel Efficacy | EC50 [2] [µM]
1 | O=C(Nc1ccc(Oc2nc(-c3cncc(F)c3)ncc2NC[C@@H]2CCCN2)cc1)OCc1ccccc1 [Cpd 197] | 0.411 | 0.145 | 1.289 | –
2 | COc1ccc(Oc2nc(-c3cncc(SC)c3)ncc2NC2CCCC(N)C2)cc1 (racemic) [Cpd 310] | – | – | 1.042 | 0.031
3 | COc1ccc(Oc2nc(-c3cncc(C#N)c3)ncc2N2CC[C@@H](N)C2)cc1 [Cpd 326] | 0.744 | – | 1.104 | 0.032
4 | COc1ccc(Oc2nc(-c3cccnc3)ncc2N2CCN(C)CC2)cc1 [Cpd 353, 4-(4-Methoxy-phenoxy)-5-(4-methyl-piperazin-1-yl)-2-pyridin-3-yl-pyrimidine] | – | 0.27 | 0.651 | –
5 | COc1ccc(Oc2nc(-c3cccnc3)ncc2NC[C@@H]2C[C@@H](F)CN2)cc1 [Cpd 196] | 0.800 | – | 1.146 | 0.0693
6 | COc1ccc(Oc2nc(-c3cncc(F)c3)ncc2NC[C@@H]2C[C@@H](F)CN2)cc1 [Cpd 193] | 0.801 | – | 1.090 | 0.032
7 | c1cncc(Cc2ccc(Oc3nc(-c4cccnc4)ncc3NC[C@@H]3CCCN3)cc2)c1 [Cpd 209, [2-Pyridin-3-yl-4-(4-pyridin-3-ylmethyl-phenoxy)-pyrimidin-5-yl]-pyrrolidin-2-(S)-ylmethyl-amine] | 0.002 | – | – | –
8 | O=CNc1ccc(Oc2nc(-c3cccnc3)ncc2NC[C@@H]2CCCN2)cc1 [Cpd 216] | 0.406 | 0.494 | 0.969 | –
9 | COc1ccc(Oc2nc(-c3cncc(C#N)c3)ncc2N2CCNC(=O)C2)cc1 [Cpd 335] | 0.050 | – | – | –
10 | O=C(c1cccc(Oc2nc(-c3cncc(F)c3)ncc2NC[C@@H]2CCCN2)c1)N1CCCC1 [Cpd 171] | 0.257 | – | – | –
11 | CS(=O)(=O)c1ccc(Oc2nc(-c3cncc(F)c3)ncc2NC[C@@H]2CCCN2)cc1 [Cpd 222] | 0.284 | – | – | –
12 | O=C(c1cccc(Oc2nc(-c3cncc(F)c3)ncc2NC[C@@H]2CCCN2)c1)N1CCOCC1 [Cpd 173] | 0.249 | – | – | –
13 | Cc1ccc(Oc2nc(-c3cncc(F)c3)ncc2NC[C@@H]2CCCN2)cc1F [Cpd 185] | 0.447 | 0.101 | 1.014 | –
14 | COc1ccc(Oc2nc(-c3cccnc3)ncc2NC2CNC2)cc1 [Cpd 226] | 0.320 | – | – | –
15 | COCCOc1ccc(Oc2nc(-c3cncc(OC)c3)ncc2NC[C@@H]2CCCN2)cc1 [Cpd 243] | 0.433 | – | – | –
16 | COc1ccc(Oc2nc(-c3cncc(SC)c3)ncc2N[C@@H]2CCCNC2)cc1 [Cpd 254] | – | – | 0.928 | 0.151
17 | COc1ccc(Oc2nc(-c3cccnc3)ncc2NC2CCCC(N)C2)cc1 (centres unmarked) [Cpd 306] | 0.910 | – | 1.127 | 0.031
18 | Cc1cncc(-c2ncc(NC[C@@H]3CCCN3)c(Oc3ccc(OCF)cc3)n2)c1 [Cpd 260] | – | 0.3 | 0.937 | –
19 | COc1ccc(Oc2nc(-c3cccnc3)ncc2NC[C@H]2CCCCN2)cc1 [Cpd 267] | – | 0.121 | 0.920 | –
20 | N#Cc1cncc(-c2ncc(NC[C@@H]3CCCN3)c(Oc3ccc(C(F)(F)F)cc3)n2)c1 [Cpd 220] | 0.457 | 0.454 | 0.890 | –

Reference: patent publication US8513271B2, “Pyrimidine compounds as delta opioid receptor modulators” (Janssen Pharmaceutica, NV, priority 2009, dated 2013)
